Results on two molecules are retold here after US7691827B2, “Amide prodrug of gemcitabine, compositions and use thereof” (Eli Lilly and Company, priority 2004, dated 2010).

Data set [1] can be described thus: pH Chemical Stability Assay. To be noted: pH range 1 to 8, after four hours, 40° C., 100 mcg/mL. In kind it is physicochemical. The procedure: pH Chemical Stability Assay
The pH chemical stability is assessed using a semi-automated HPLC technique. Samples of compound of formula I are prepared at 100 mcg/mL in five buffers representing the pH range throughout the gastrointestinal tract (pH1-pH8). Samples are loaded onto an HPLC autosampler incubated at 40° C. Samples are repeatedly injected on the HPLC at hourly intervals for up to 24 hours with an HPLC column that separates a compound of formula I from gemcitabine. The peak area of the compound of formula I is monitored by UV detection over time and are compared to initial peak areas to determine stability.

Another data set can be described thus: Mouse Pharmacokinetics. The data set is classed as in vivo, CD-1 mice. The procedure:
The pharmacokinetic profiles of gemcitabine and a compound of formula I, are assessed in male CD-1 mice following oral administration at doses selected to contain approximately 10 mg/kg of gemcitabine. Designated animals (n=3/time point/compound) are sacrificed at 0.08, 0.25, 0.5, 1, 2, and 6 hours after dosing, and systemic blood samples are collected into EDTA-treated tubes containing tetrahydrouridine (0.5 mM final concentration in blood) to inhibit further metabolism of gemcitabine. An additional 3 animals are sacrificed at 0.08 hours for collection of hepatic portal blood. Plasma is isolated by centrifugation and frozen prior to analysis. Plasma concentrations of gemcitabine and prodrugs are determined by LC/MS/MS analysis. Pharmacokinetic parameters are calculated using WinNonlin software (Pharsight Corp., Mountain View, Calif.). Pharmacokinetic parameters of each prodrug are compared to those determined from administration of oral gemcitabine hydrochloride in a similar study design.

Data set [2] is described as follows: Monkey Pharmacokinetics Assay. The data set is classed as in vivo. To be noted: administered intravenously to cynomolgus monkeys. The procedure:
Monkey Pharmacokinetics Assay
The pharmacokinetic profiles of gemcitabine and a compound of formula I, are assessed in cynomolgus monkeys following oral and intravenous administration in a crossover design. Compounds are administered at doses selected to contain approximately 10 mg/kg of gemcitabine. Blood samples are collected into EDTA-treated tubes containing tetrahydrouridine (0.5 mM final concentration in blood) at designated intervals for up to 48 hours. Animals are pretreated with ranitidine (intravenous, 5 mg/kg) in the oral dosing periods. Plasma is isolated by centrifugation and frozen prior to analysis. Plasma concentrations of gemcitabine and a compound of formula I are determined by LC/MS/MS analysis. Pharmacokinetic parameters are determined using WinNonlin software (Pharsight Corp., Mountain View, Calif.).

Data set [3] is described as follows: Small Intestine Homogenate Assay (mouse). The data set is classed as in vitro ADME, CD-1 mice. To be noted: mouse SIH, 100 uM, pH 7.5. The procedure: (§1) Small Intestine Homogenate Assay
(§2) To determine the stability of a compound of formula I to enzymatic hydrolysis in the intestine, crude homogenates of small intestinal epithelial cells are prepared from sections of the upper small intestine from CD-1 mice, beagle dogs, cynomolgus monkeys, and humans. Mouse and dog homogenates are prepared from freshly collected tissue, while monkey and human homogenates are prepared from previously frozen tissues. Cells are gently scraped from intestinal segments, pooled, and homogenized in 50 mM acetate buffer using Polytron (PT-10-85). Protein concentrations are determined by standard spectrophotometric techniques. The prepared homogenates are store at −70° C. before using.
(§3) The hydrolytic rates of a compound of formula I in small intestinal homogenates (SIH) is determined by incubating a compound of formula I (100 uM) with SIH (2.5-5 mg/mL of total protein) in acetate at pH 7.5 for up to 6 hours. Concentrations of gemcitabine released via hydrolysis is determined by LC/MS analysis after the reaction is quenched with acetonitrile. Hydrolysis rates are calculated at 30 minutes in screening experiments and from the slope of the linear portion of the hydrolysis vs. time curves in characterization studies of a compound of formula I.

Data set [4] in a line: Small Intestine Homogenate Assay (dog). The data set is classed as in vitro ADME, beagle dogs. To be noted: dog SIH, 100 uM, pH 7.5. The procedure:
as §1, §2, §3

Data set [5] is described as follows: Small Intestine Homogenate Assay (monkey). In kind it is in vitro ADME, cynomolgus monkeys. To be noted: monkey SIH. The procedure:
as §1, §2, §3

The nature of data set [6]: Small Intestine Homogenate Assay (human). The data set is classed as in vitro ADME, humans. To be noted: human SIH. The procedure: as §1, §2, §3
Data set [7] can be described thus: Liver S9 Hydrolysis Assay (mouse). In kind it is in vitro ADME, CD-1 mouse. To be noted: mouse liver S9, 10 uM, pH 8.0. The procedure:
(§4) Liver S9 Hydrolysis Assay
(§5) Hydrolysis of a compound of formula I by liver enzymes is determined by liver hydrolysis assay. Liver homogenates are prepared from CD-1 mouse, beagle dog, cynomolgus monkey, and human livers. Liver tissues are cut into small pieces using scissors, then, homogenized in 50 mM acetate buffer using Polytron (PT-10-85) for 1 min. Post-mitochondrial (S9) fractions are prepared from each by ultracentrifugation at 9,000×g at 4° C. for 10 min. Mouse, dog and monkey liver S9 fractions are prepared from freshly collected tissues, while human liver S9 are prepared from previously frozen tissue. After centrifugation, the supernatant is collected and protein concentrations are determined by standard spectrophotometric techniques. The prepared S9 fractions are store at −70° C. before using.
(§6) The hydrolytic rates of a compound of formula I in liver S9 is determined by incubating compound (10 uM) with S9 (2 mg/mL of total protein) in phosphate buffered saline at pH 8.0 for up to 6 hours. Concentrations of gemcitabine released via hydrolysis are determined by LC/MS analysis after the reaction is quenched with acetonitrile. Hydrolysis rates are calculated at 30 minutes in screening experiments and from the slope of the linear portion of the hydrolysis vs. time curves in characterization studies of a compound of formula I.

Data set [8] is described as follows: Liver S9 Hydrolysis Assay (dog). In kind it is in vitro ADME, beagle dog. To be noted: dog liver S9, 10 uM, pH 8.0. The procedure: as §4, §5, §6
Data set [9] is described as follows: Liver S9 Hydrolysis Assay (monkey). The data set is classed as in vitro ADME, cynomolgus monkey. The procedure:
as §4, §5, §6

A short description of data set [10]: Liver S9 Hydrolysis Assay (human). In kind it is in vitro ADME. The procedure: as §4, §5, §6
The nature of data set [11]: 4-Day Mouse Screen (oral toxicity). In kind it is in vivo. To be noted: oral gavage once daily for 4 days, molar equivalent of 8-mg/kg gemcitabine, female CD-1 mice. The procedure:
To evaluate the toxicity produced by orally administered compound of formula I when administered daily to female […] mice for 4 days, the gastrointestinal toxicity profiles of a compound of formula I is compared with the historical results for gastrointestinal toxicity when gemcitabine is administered orally at 8 mg/kg in a 4-day mouse study.
Female CD-1 mice 5-8 weeks of age are dosed with a compound of formula I by oral gavage. A dose level is chosen to approximate a molar equivalent of 8-mg/kg gemcitabine. A dose volume of 10 mL/kg is used and doses are administered once daily on 4 consecutive days. Necropsy is performed approximately 5-8 hours following the 4th dose.
Clinical signs, clinical chemistry, gross pathology, and limited histopathology (ileum, jejunum, and liver) are evaluated.

Data set [12] can be described thus: 14 Day Mouse Study (oral toxicity and exposure). In kind it is in vivo. To be noted: 14 days oral gavage, CD-1 mice. The procedure: A 14-Day Mouse Study is conducted to evaluate whether a compound of formula I produces adverse effects in mice following 14 days of oral gavage dosing and to determine the plasma concentrations of a compound of formula I and its metabolites gemcitabine HCl and deoxydifluorouridine after 1 or 14 doses.
Male and female CD-1 mice 9-12 weeks of age are dosed with a compound of formula I […] by oral gavage. A range of doses is selected in an effort to determine a maximum tolerated dose and dose limiting toxicity. A dose volume of 10 mL/kg is used and doses are administered once daily.
Clinical signs, body weight, food consumption, hematology, clinical chemistry, plasma concentrations of a compound of formula I and metabolites gemcitabine HCl and deoxydifluorouridine, and pathology (including gross pathology, organ weights, and histopathology) are evaluated.

The nature of data set [13]: 7-Day Dog Study (oral toxicity). To be noted: oral capsule once daily for 7 days, beagle dogs. The data set is classed as in vivo.
Description: To evaluate the toxicity profile of a compound of formula I when administered to Beagle dogs for 7 days, and to determine the plasma concentrations of a compound of formula I and metabolites gemcitabine HCl and deoxydifluorouridine after 1 or 7 doses, a 7-day dog study is conducted.
Male and female beagle dogs 6-48 months of age are dosed orally via capsule with a compound of formula I. A range of doses is selected in an effort to determine a maximum tolerated dose and dose limiting toxicity. A dose volume of 1 mL/kg is used and doses aree administered once daily.
Clinical signs, body weight, food consumption, body temperature, hematology (including coagulation), clinical chemistry, urinalysis, plasma concentrations of the compound of Example I and its metabolites gemcitabine HCl and deoxydifluorouridine, and pathology (including gross pathology, organ weights, and histopathology) were evaluated.
Data set [14] relates to HCT-116 colon tumor cells. The data set can be described thus: In Vivo Assay, HCT-116 colon tumor xenograft. To be noted: oral gavage, HCT-116 xenograft in female nude mice. The procedure: HCT-116 colon tumor cells are grown in vitro under standard tissue culture conditions, harvested, washed, and 5×10^6 cells (1:1 suspension in Matrigel, Collaborative Biomedical Products, Inc) are injected subcutaneously in the rear flank of female nude mice (Charles River, CD1 nu/nu, 24-27 g, irradiated with 450 Rads within 24 h of implantation). Tumors are allowed to grow to ˜100 mm^3 before initiation of therapy. Vehicle control, a compound of formula I or gemcitabine-HCl at various dose levels are administered to the mice by oral gavage (10 ml/kg volume) at the times indicated in the individual experiments. Compounds are administered either daily for fourteen days, every other day for a total of seven doses, or every third day for a total of four doses. […] Tumor size is determined by caliper measurements and tumor volume (mm^3) is estimated from the formula l×w^2×0.536, where l is the larger and w is the smaller of perpendicular diameters. All data (tumor measurements and animal weights) are captured twice-weekly beginning with the start of therapy and analyzed using a computer based tumor measurement system.

For data set [15] the following is noted: cited from earlier work.
The conditions of data set [16]: result of first pass metabolism; cited from earlier work.

Each structure is given as a SMILES string.

For the molecule `CCCC(CCC)C(=O)Nc1ccn([C@@H]2O[C@H](CO)[C@@H](O)C2(F)F)c(=O)n1` [Example 1, 1-(2,2-difluoro-2-deoxy-β-D-ribofuranosyl)-4-(2-propyl-1-oxopentyl)aminopyrimidin-2-one], in data set [1], the “compound degraded to gemcitabine” value is reported as “Less than 25%”. Moreover, the “concentration of intact prodrug in hepatic portal plasma” value in the data set “Mouse Pharmacokinetics” (0.08 hours after oral dosing, CD-1 mice) is “relatively high concentrations”. Further, the “hydrolysis in vivo to release gemcitabine” value is “extensively hydrolyzed” in the data set “Mouse Pharmacokinetics” (administered orally to CD-1 mice, approx. 10 mg/kg of gemcitabine) and “extensively hydrolyzed” in data set [2]. Moreover, in “Mouse Pharmacokinetics” (oral, CD-1 mice), the “plasma exposure to gemcitabine compared to direct oral administration of gemcitabine hydrochloride” value is listed as “increased”. The “rate of hydrolysis in small intestine homogenate” value in [3] is “slow rate of hydrolysis”; in data set [4], “slow rate of hydrolysis”; in data set [5] (100 uM, pH 7.5), “slow rate of hydrolysis”; in [6] (100 uM, pH 7.5), “slow rate of hydrolysis”. The “total compound converted to gemcitabine” value is “less than 3%” in data set [5] (6 hour incubation); “less than 3%” in data set [6] (6 hour incubation); “approximately 3.5%” in data set [9] (monkey liver S9, 6 hour incubation); “approximately 3.5%” in data set [10] (human liver S9, 6 hour incubation). In addition, the “hydrolysis in liver S9” value was “hydrolyzed” in [7]; “hydrolyzed” in data set [8]; “hydrolyzed” in [9] (monkey liver S9, 10 uM, pH 8.0); “hydrolyzed” in data set [10] (human liver S9, 10 uM, pH 8.0). In addition, the “severity of atrophic intestinal changes or enteropathy versus gemcitabine HCl” value in [11] is given as “significant reduction”. Moreover, the “enteropathy versus gemcitabine HCl on a molar equivalent basis” value in data set [12] was “less enteropathy”. Besides, the “systemic exposure to gemcitabine HCl versus gemcitabine HCl on a molar equivalent basis” value in data set [12] is recorded as “approximately twice”. In data set [13], the “hematotoxicity and the other toxicities, including GI toxicity” value is “consistent with what has been previously described for parenteral gemcitabine”. Further, the “antitumor efficacy versus equivalent dose of gemcitabine-HCl” value in data set [14] is “comparable”. Further, the “overall toxicity versus equivalent amount of gemcitabine-HCl” value in data set [14] was “less overall toxicity”.

`Nc1ccn([C@@H]2O[C@H](CO)[C@@H](O)C2(F)F)c(=O)n1` [gemcitabine, 2′,2′-difluoro-2′-deoxycytidine]: in data set [15] (comparable exposures via intravenous dosing, previous mouse studies), the “death or gastrointestinal toxicity” value is on record as “did not result in death or gastrointestinal toxicity”. In data set [15] (single oral (gavage) dose of 167, 333, or 500 mg/kg, mice), the intestinal lesions entry is “moderate-to-marked loss of mucosal epithelium (atrophic enteropathy)”. In addition, in data set [16], the oral bioavailability entry is on record as “poor oral bioavailability”.
